Residues, ends and D or L forms follow the SMILES beside them. No end group written: not given here. *: point of attachment. For = O=C*
Columns and labels:
[1] = system: human PMN; assay: Measurement of cytokine production by human PMN (ELISA); assay type: cell-based; set-up: key to IL-8: x: reduced activity; xx: strongly reduced activity; conditions: for IL-8: secretion of IL-8 by human neutrophils, relative to wild type PSMα3; for IL-8 secretion: compared with wild type PSMα3
Description: After isolation and washing, PMN or PBMC were resuspended in RPMI 1640 medium (Sigma) supplemented with 10% human serum, 2 mM L-glutamine, 100 U/ml penicillin, 100 μg/ml streptomycin, 2 mM sodium pyruvate, and 10 mM HEPES. Cells were distributed to a 96-well culture plate at 200 μl and 5×10^5 cells per well. Synthetic PSM peptides or filtered bacterial culture supernatants were diluted in fresh culture medium and added to the plate at 100 μl/well. Plates were incubated at 37° C. in a 5.5% CO2 incubator for 5 hours. Then, the plate was centrifuged at 1500 rpm for 10 minutes, and supernatant was harvested from each well. Mono Mac 6 cells were obtained from DSMZ (Germany), and were grown in RPMI 1640 plus 10% heat inactivated fetal bovine serum (HyClone), 2 mM L-glutamine, 10.0 units/ml penicillin, 10.0 μg/ml streptomycin, 0.2× non-essential amino acid solution, and OPI medium supplement (Sigma). Cells were grown in T75 culture flasks in a 37° C. CO2 incubator and harvested by centrifugation. After removal of supernatant, cells were resuspended in fresh culture medium, counted, and distributed into a 96-well cell culture plate at 100 μl and 2.5×10^5 cells per well. Phorbol 12-myristate 13-acetate (Sigma) was added to a final concentration of 2.5 ng/ml for cell pre-stimulation. The plate was incubated in a 37° C. CO2 incubator for 3 hours. At the end of the pre-stimulation period, synthetic PSM peptides were diluted in culture medium and added to the cells at 100 μl/well. Cells were incubated in a 37° C. CO2 incubator for 20-22 hours, and the plate was centrifuged at 1500 rpm for 10 minutes. Human TNF-α, IL-1β, IL-8, and mouse TNF-α were measured in the culture supernatants with commercial ELISA assay kits (R&D systems) according to the manufacturer's instructions.
(§1) Human neutrophil assays: Human neutrophil isolation, chemotaxis, calcium ion flux, priming, lysis assays, and measurement of IL-8 production were performed as described in Example 2.

[2] = Immunization of mice with synthetic PSM peptides, PSM-specific antibodies by ELISA; assay type: in vivo, mice (BALB/c); conditions: 50 μg s.c. with CFA, booster with IFA
Description: In order to determine the immunogenicity of synthetic PSM peptides, mice (BALB/c, female, 6-8 weeks) were injected subcutaneously with 50 μg (100 μL) of each PSM peptide in sterile PBS emulsified with complete Freund's adjuvant (CFA) for primary immunization. A booster injection containing incomplete Freund's adjuvant (IFA) instead of CFA was given to the animals 14 days after the primary immunization. The control group of animals received injections of sterile PBS and adjuvants only. Three blood withdrawals were performed on each mouse. The first two blood samples were collected via retro-orbital route immediately before primary injection and before booster injection, respectively. All animals were sacrificed 21 days after booster injection for the terminal blood samples.
PSM-specific antibodies in mouse serum were determined by ELISA assays. Microtiter plates (Nunc 96-well flat-bottom MaxiSorp plates) were coated with 20 μg/ml of each synthetic PSM peptides in PBS plus 0.05% NaN3, and incubated overnight at 4° C. The plates were washed with PBS containing 0.05% Tween-20, and blocked for 1 hour at room temperature with 1% BSA (Sigma) and 0.05% NaN3 in PBS. Serum samples were diluted in assay diluent (Tris-buffered saline containing 0.1% BSA and 0.05% Tween-20, pH 7.2), and added to the washed wells at 100 μl/well for an incubation of 2 hours at room temperature. Plates were washed again and HRP-labeled goat anti-mouse IgG (R&D Systems) and goat anti-mouse IgM (Jackson ImmunoResearch Laboratory) were diluted in assay diluent and added to the plates at 100 μl/well for an incubation of 1 hour at room temperature in order to detect PSM specific mouse IgG and IgM, respectively. Plates were washed again and a substrate solution containing equal volume of Tetramethylbenzidine and H2O2 was added to the plates at 100 μl/well for color development. The reaction was terminated by adding 50 μl of 1 M H2SO4 to each well, and optical density (O.D.) was measured at 450 nm using an ELISA plate reader.

[3] = system: human neutrophils; assay: Priming of human neutrophils (surface expression of CD11b and gp91phox); assay type: cell-based; set-up: key to CD11b: x: reduced activity; xx: strongly reduced activity; conditions: for CD11b: surface expression of CD11b on human neutrophils, relative to wild type PSMα3; for ability to increase CD11b expression: compared with wild type PSMα3
Description: (§2) Priming of PMNs by synthetic PSMs was determined by increased surface expression of CD11b and gp91phox (granule exocytosis). PMNs were incubated with 10-10,000 ng/ml PSM, 10 μM fMLP, 10 ng/ml lipopolysaccharide, or 10 μg/ml lipoteichoic acid in 96-well tissue culture plates at 37° C. with rotation for 60 minutes. The assay was terminated by centrifuging cells at 4° C. for 8 minutes at 350×g. Cells were washed twice in cold Dulbecco's phosphate-buffered saline and stained with and isotype control antibody (BD Biosciences) or those specific for CD11b (mAb 44, BD Biosciences) or gp91phox (mAb 7D533). Propidium iodide (0.5 μg/ml) was used to identify dead cells. PMNs were analyzed on a FACSCalibur flow cytometer (Becton Dickinson) and dead cells were excluded with a single gate. Percent positive neutrophils were determined with a marker defined by the boundary of the isotype-matched control antibody.
as §2, with “10-10000” for “10-10,000”, “7D5).” for “7D533).”
as §1

[4] = system: human neutrophils; assay: Lysis of human neutrophils (release of lactate dehydrogenase); assay type: cell-based; set-up: key to Neutrophil lysis: x: reduced activity; xx: strongly reduced activity; conditions: for Neutrophil lysis: pro-inflammatory activity of PSMα3 mutants, relative to wild type PSMα3; for ability to promote neutrophil lysis: compared with wild type PSMα3
Description: (§3) Lysis of PMNs by synthetic PSMs or clarified S. aureus culture media was determined essentially as described (Voyich et al., J Infect Dis 194, 1761-70, 2006; Voyich et al., J Immunol 175, 3907-19, 2005). Synthetic PSMs (1 or 10 μg/ml) were added to wells of a 96-well tissue culture plate containing 10^6 PMNs and plates were incubated at 37° C. for up to 3 hours. At the desired times, PMN lysis was determined by release of lactate dehydrogenase (LDH; Cytotoxicity Detection Kit, Roche Applied Sciences). Alternatively, wild-type and isogenic mutant S. aureus strains were cultured for 18 hours at 37° C. in 50 ml TSB with shaking using a 100 ml flask. Bacteria were removed by centrifugation and culture media were sterilized by filtration and stored at −80° C. in aliquots until used. Culture medium was diluted 1:10 in RPMI/H, mixed with human PMNs (10^6) and tested for its ability to cause PMN lysis.
as §3, with “above in Example 2.” for “(Voyich et al., J Infect Dis 194, 1761-70, 2006; Voyich et al., J Immunol 175, 3907-19, 2005).”
as §1

[5] = system: MRSA strains; conditions: cited from earlier work
[6] = system: sheep red blood cells; assay: Hemolysis of sheep red blood cells; assay type: cell-based; conditions: 10 μg/ml, compared to other PSMs (FIG. 21G)
Description: FIG. 8 includes several graphs showing hemolytic activities of PSMs. […] In FIGS. 8A and 8B, the data are mean±SEM of three independent measurements. P values are vs. DMSO in FIG. 8A and vs. wild-type in FIG. 8B. Hemolytic activity was determined by incubating samples with a 2% (v/v) suspension of sheep red blood cells and incubation at 37° C. for 1 hour. Synthetic PSM peptides or filtered bacterial overnight culture supernatants were diluted in PBS and added to sheep erythrocytes at a final concentration of 10 μg/ml for the peptides and 1:200 for culture filtrates.
Hemolysis: Hemolytic activity of PSM peptides was determined by incubating samples with a 2% (v/v) sheep red blood cells and incubation for 1 h at 37° C. as described (Wang et al., Nature Med. 13:1510-1514, 2007). Hemolytic activity of S. aureus wild-type and psm-mec deletion strains was assessed by streaking on sheep blood agar plates.

[7] = N-formylated synthetic PSM peptides, BALB/c mice (FIG. 11)
[8] = non N-formylated synthetic PSM peptides, BALB/c mice (FIG. 12)

Molecule	IL-8 [1]	Neutrophil lysis [4]	other results
fMEFVAKLFKFFKDLLAKFLGNN [#14]	xx		
MGIIAGIIKVIKSLIEQFTGK (S. aureus) [PSMα1]			specific antibody production in vivo [2, 7]: most robust antibody production; specific antibody production in vivo [2, 8]: strongest response
fMEFVAKLFKFFKALLGKFLGNN [#11]	xx		
fMAFVAKLFKFFKDLLGKFLGNN [#1]		xx	CD11b [3]: x
fMEFVAKLFKFFKDLLGAFLGNN [#15]	xx	xx	
fMEFVAKAFKFFKDLLGKFLGNN (For-MEFVAKAFKFFKDLLGKFLGNN; listed as Staphylococcus aureus) [#5]		xx	
fMEFVAKLFAFFKDLLGKFLGNN [#7]	xx		
MEGLFNAIKDTVTAAINNDGAKLGTSIVSIVENGVGLLGKLFGF (S. aureus) [PSMβ1]			specific antibody production in vivo [2, 8]: strongest response
MEFVAKLFKFFKDLLGKFLGNN [PSMα3, no formyl]	xx	x	ability to increase CD11b expression [3]: strongly reduced ability; CD11b [3]: xx; IL-8 secretion [1]: strongly reduced ability; ability to promote neutrophil lysis [4]: reduced ability
MAIVGTIIKIIKAIIDIFAK [PSMα4]			specific antibody production in vivo [2, 7]: most robust antibody production
CN[C@H](CC(C)C)C(=O)N[C@H]1C(=O)N[C@@H](CC(N)=O)C(=O)N[C@H]2C(=O)N[C@H]3C(=O)N[C@H](C(=O)N[C@H](C(=O)O)c4cc(O)cc(O)c4-c4cc3ccc4O)[C@H](O)c3ccc(c(Cl)c3)Oc3cc2cc(c3O[C@@H]2O[C@H](CO)[C@@H](O)[C@H](O)[C@H]2O[C@H]2C[C@](C)(N)[C@H](O)[C@H](C)O2)Oc2ccc(cc2Cl)[C@H]1O [vancomycin]			minimum inhibitory concentration [MIC] ([5]; MRSA strains with decreased susceptibility to vancomycin): 8 to 16 µg/mL; MIC ([5]; strains fully resistant to vancomycin): ≥ 32 µg/mL
fMEFVAALFKFFKDLLGKFLGNN (For-MEFVAALFKFFKDLLGKFLGNN; listed as Staphylococcus aureus) [#4]	xx	xx	
CC[C@H](C)[C@H](NC(=O)[C@H](CS)NC(=O)[C@@H](NC(=O)[C@H](CCCCN)NC(=O)[C@@H](NC(=O)[C@H](CC(C)C)NC(=O)[C@H](CC(=O)O)NC(=O)[C@@H](NC(=O)[C@@H](NC(=O)[C@H](CO)NC(=O)[C@@H](NC(=O)[C@@H](NC(=O)[C@@H](NC(=O)CNC(=O)[C@@H](NC(=O)[C@H](Cc1ccccc1)NC(=O)[C@H](CC(=O)O)NC(=O)[C@H](CCSC)NC=O)[C@@H](C)O)C(C)C)[C@@H](C)CC)[C@@H](C)O)[C@@H](C)CC)[C@@H](C)CC)[C@@H](C)CC)[C@@H](C)O)C(=O)N[C@@H](CCC(N)=O)C(=O)N[C@@H](C)C(=O)N[C@@H](Cc1ccccc1)C(=O)NCC(=O)O [PSM-mec] (HELM PEPTIDE1{[O=C[*:2]].M.D.F.T.G.V.I.T.S.I.I.D.L.I.K.T.C.I.Q.A.F.G}$$$$V2.0)			lysis of sheep erythrocytes [6]: intermediate range
fMEFVAKLFKFFKDLLGKFLGNA [#20]	xx	x	CD11b [3]: x
fMEFVAKLFKFFADLLGKFLGNN (For-MEFVAKLFKFFADLLGKFLGNN; listed as Staphylococcus aureus) [#10]	xx	x	CD11b [3]: xx
fMEFVAKLFKFFKDLLGKFLGAN [#19]	xx	xx	ability to increase CD11b expression [3]: greatest reduction; CD11b [3]: xx; IL-8 secretion [1]: greatest reduction; ability to promote neutrophil lysis [4]: greatest reduction
fMEFAAKLFKFFKDLLGKFLGNN (For-MEFAAKLFKFFKDLLGKFLGNN; listed as Staphylococcus aureus) [#3]	xx		

Reference: patent US8211445B2, “PSM peptides as vaccine targets against methicillin-resistant Staphylococcus” (The United States of America, as represented by the …, priority 2007, dated 2012)
